Experimental findings from paper doi:10.1101/2020.01.16.909325v1 (biorxiv, 2020) are described below.

This assay has as its target HTR4 (Homo sapiens, UniProt Q13639). The settings on record: agonist; pH 7.0, 30 °C.

Chain of HTR4 (Q13639 whole entry): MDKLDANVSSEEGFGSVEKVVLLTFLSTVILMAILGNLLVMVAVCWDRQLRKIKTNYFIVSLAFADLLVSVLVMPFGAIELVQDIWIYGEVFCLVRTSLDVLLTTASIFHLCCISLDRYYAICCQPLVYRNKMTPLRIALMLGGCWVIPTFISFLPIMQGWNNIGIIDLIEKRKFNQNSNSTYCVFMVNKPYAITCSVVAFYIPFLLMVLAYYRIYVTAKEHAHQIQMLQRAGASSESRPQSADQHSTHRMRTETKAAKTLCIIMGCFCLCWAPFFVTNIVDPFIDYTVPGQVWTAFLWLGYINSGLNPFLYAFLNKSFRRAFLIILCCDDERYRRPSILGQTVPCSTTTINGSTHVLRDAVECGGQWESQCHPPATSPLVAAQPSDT

For the molecule `NCCc1c[nH]c2ccccc12` [tryptamine], the EC50 entry is “tryptamine agonism of HTR4 and ADRA2B”.
